Where “and” joins values, the source holds several entries; their conditions need not be identical. Equal entries are not always repeated.
Legend:
[1] = Renal toxicity of Example 24 vs PMB after four doses in mouse; format: in vivo, mouse; conditions: for Urine β-2 microglobulin: CD-1 mice, urine 24 h, normalized to urinary creatinine, mean
Method: Immediately after the fourth dose mice were transferred to metabolic cages and urine collected for 24 h. for determination of urinary biomarkers. After urine collection mice were sacrificed for renal histopathology.
The urine biomarkers were normalized to urinary creatinine.

A. baumannii NCTC13301 = assay: Neutropenic murine thigh model; format: in vivo; conditions: CD-1 mice thigh, IV 0.5 mg/kg at 2, 6, 10 h, counts at 16 h, PMB in parentheses, listed as PMB
Method: After rendering neutropenic (cyclophosphamide 150 mg/kg d-4, 100 mg/kg d-1), CD-1 mice (n=5) were inoculated in each thigh with approx. 10^5 cfu of A. baumannii NCTC13301. […] At 16 h post-infection mice were euthanised and thighs prepared for colony counts.
In each case the decrease observed with PMB in the same experiment is shown in parentheses: […]

E. coli ATCC 25922 = assay: MIC alone and with rifampicin, broth microdilution CLSI; format: cell-based; conditions: alone
Method: (§1) MIC values (μg/mL) were determined by broth microdilution under CLSI conditions.

K. pneumoniae ATCC 13882 = assay: as above; format: cell-based; conditions: alone
Method: as §1

Substance: Polymyxin B [reference compound]
- Tubular Degeneration/necrosis (histopathology, animals affected) ([1]; CD-1 mice (n=5), sc 25 mg/kg four times at 8 h intervals): 5/5 (2 min/
- Urine β-2 microglobulin ([1]; sc 25 mg/kg four times at 8 h intervals): 43.83
- Urine β-2 microglobulin ([1]; sc […] four times at 8 h intervals): 3.43
- Basophilic Tubules (cortex) (animals affected) ([1]; mouse, in vivo, sc, 25 mg/kg): 5/5 (1 min/
- Mitotic Figures increased (animals affected) ([1]; mouse, in vivo, sc, 25 mg/kg): 3/5
- Urine Albumin ([1]; mouse, in vivo, sc, 25 mg/kg): 7.73
- Urine Cystatin C ([1]; mouse, in vivo, sc, 25 mg/kg): 44.51
- Urine Kim-1 ([1]; mouse, in vivo, sc, 25 mg/kg): 3,446.42
- Urine NGAL ([1]; mouse, in vivo, sc, 25 mg/kg): 4.37
- Log drop in cfu Compared to Vehicle Control (A. baumannii NCTC13301): 4.2 and 4.1
- MIC E. coli ATCC 25922 (E. coli ATCC 25922): 0.25 µg/mL
- MIC K. pneumoniae ATCC 13882 (K. pneumoniae ATCC 13882): 0.25 µg/mL
